How the values were obtained:
[1] = system: hemiparkinsonian MPTP-monkeys; experiment: Ipsilateral and contralateral circling behavior in hemiparkinsonian MPTP-monkeys; type: in vivo, macaca fasicularis
Protocol: (§1) Six hemiparkinsonian ovariectomized female macaca fasicularis monkeys weighing 2.8-6.5 kg were used in this experiment. During induction of the parkinsonian syndrome, they received 1-methyl-4-phenyl-1,2,3,6-tetrahydropyridine (MPTP, 3 mg) via an Alzet pump during a period of 1-2 weeks according to the monkey. The procedure consisted of putting the pump in the left substantia nigra and the MPTP infused lesioned the dopaminergic cells. The animals were used at least 5 months after the induction of their hemiparkinsonian state at which time they had stabilized. For a further experimentation, 6 bilaterally-lesioned parkinsonian macaca fasicularis monkeys were used. The induction of the parkinsonian syndrome was performed according to the above-described methodology, except that the Alzet pump was installed so as to lesion dopaminergic cells of the substantia nigra in both brain hemispheres.
(§2) To determine the effect of levodopa, DHEA or combination thereof on parkinsonian monkeys, ipsilateral and contralateral circling was monitored in hemiparkinsonian monkeys while Parkinsonian score was determined in bilaterally-lesion parkinsonian monkeys. Hemiparkinsonian monkeys turn towards the ipsilateral side of the lesion (to the left) under basal conditions and upon dopaminergic stimulation this circling changes for the contralateral side (to the right). Parkinsonian score was determined in bilaterally-lesion parkinsonian monkeys according to the method known in the art. All received the same treatments and were their own controls. Monkeys were first treated with levodopa for priming until a stable antiparkinsonian behavior was observed. During the investigation of DHEA administered alone, priming of the monkeys was continued with administration of levodopa/benserazide (50/12.5 mg) given twice weekly. DHEA treatments were started on the third day after the last levodopa dose.
(§3) DHEA was administered at different doses (1, 5, and 15 mg/kg) by nasogastric gavage (n.g.) alone and in combination (DHEA: 1, 5, 10 and 15 mg/kg n.g.) with a s.c. T.L-Dopa. Threshold doses of levodopa, that is the minimal dose to obtain contralateral circling were sought for each of the MPTP-monkeys and varied from one monkey to another from 3 to 8 mg/kg (3, 4, 4.5, 5, 5, and 8 mg/kg). Higher doses of DHEA (25-100 mg/kg) alone or with T.L-Dopa were also tested in a similar paradigm.
Treatments were administered in the morning and each animal was recorded via a video camera system. Duration of locomotor activation lasted for 90 min for all hemiparkinsonian animals and treatments. […] Each treatment was repeated 2-3 times and averaged for each monkey.
Experimental data was compared using an ANOVA for repeated measures followed by post-hoc pair wise comparisons with Fisher's probability of least significant difference test (PLSD). A p<0.05 was required for the results to be considered statistically significant. Statistical comparison of square root transformation of the data was used to stabilize variance when required (D. C. Montgomery (1991) Third Edition, Design and analysis of experiments. ed. Whileys and Sons pp. 216).

[2] = system: bilaterally-lesioned parkinsonian MPTP-monkeys; experiment: Parkinsonian score and duration of levodopa effect in bilaterally-lesioned parkinsonian MPTP-monkeys; type: in vivo, macaca fasicularis
Protocol: as §1, §2, §3
Experimental data was compared using an ANOVA for repeated measures followed by post-hoc pair wise comparisons with Fisher's probability of least significant difference test (PLSD). A p<0.05 was required for the results to be considered statistically significant. […]

[3] = DHEA 1 mg/kg n.g. added to threshold dose s.c. T.L-Dopa, compared to saline or T.L-Dopa alone
[4] = DHEA 5, 10 and 15 mg/kg n.g. combined with T.L-Dopa, compared to saline
[5] = threshold dose of levodopa alone

SMILES: C[C@]12CC[C@H](O)CC1=CC[C@@H]1[C@@H]2CC[C@]2(C)C(=O)CC[C@@H]12 [DHEA, Dehydroepiandrosterone]
- contralateral circling (mean/30 min) [1, 3]: significantly increased
- contralateral circling (mean/30 min) [1, 4]: significantly increased
- levodopa-induced locomotor activity ([1]; DHEA added to minimal threshold doses of levodopa): potentiates
- contralateral circling (mean/30 min) ([1]; DHEA alone 1-15 mg/kg n.g., compared to saline treatment): significantly and similarly increased
- ipsilateral circling ([1]; DHEA alone or DHEA combined to T.L-Dopa, versus basal conditions or saline): decreased
- dose-response on circling behavior ([1]; DHEA alone or combined with levodopa): did not produce a significant dose-response
- Duration of the DHEA effect ([1]; DHEA alone, n.g.): 90 min
- effect on levodopa-induced change in ipsilateral, contralateral and ipsilateral-contralateral circling ([1]; optimal dose of DHEA for each monkey combined with threshold levodopa): significantly potentiated
- Parkinsonian score [2, 3]: decreased
- increase of duration of levodopa effect ([2]; DHEA 1 and 5 mg/kg with threshold dose of levodopa, versus levodopa alone): approximately 40%
- Parkinsonian score [2, 4]: reduced
- Parkinsonian score ([2]; DHEA alone at different doses, n.g.): reduce

SMILES: N[C@@H](Cc1ccc(O)c(O)c1)C(=O)O [Levodopa, L-3,4-dihydroxyphenylalanine]
- contralateral circling [1, 5]: increased
- ipsilateral circling [1, 5]: decreased
- overall ipsilateral-contralateral circling [1, 5]: reducing
